Experimental data: patent US12404318B2, “Combination HBV therapy” (priority 2018, dated 2025)

Legend:
[1] = test system: HBV (rAAV8-1.3HBV strain ayw, D type); test: Combination therapy study in AAV-HBV mice (Example 1): serum HBsAg and HBV DNA; assay type: in vivo, C57BL/6 mice; conditions: AAV/HBV-infected C57BL/6 mice, HBV02 3 mg/kg, HBC34 antibody (HBC34-v7-mu-IgG2a) 15 mg/kg, alone or combined
Description: The mice (C57BL/6 strain) were inoculated with the following amount of rAAV8-1.3HBV strain ayw, D type: 1.0×10^11 viral genomes per mouse in 200 μl volume via tail veins injection. Four weeks after viral inoculation, treatment with test compounds was initiated.
Entecavir was administered orally once per day.

HBV genotype C = test: Serum clearance of HBsAg and viral entry inhibition in PXB-Mouse model (Example 3); assay type: in vivo, uPA/SCID mice with transplanted primary human hepatocytes; conditions: HBC34 antibody (HBC34-v35-mu-IgG2a) 15 mg/kg, not in combination with the siRNA
Description: An immune-deficient mouse having transplanted human hepatocytes was used to test the effectiveness of a combination therapy with an HBV-specific siRNA and an anti-HBV antibody in clearing HBsAg.
Primary human hepatocytes were transplanted into SCID mice for which mouse hepatocytes had previously been destroyed enzamatically. The mice were T- and B-cell deficient. […] Mice were inoculated via tail vein injection with HBV genotype C at 1.0×10^7 viral genomes per mouse. Treatments began eight weeks post-infection.
HBV-infected mice (n=4 per treatment group) were administered one of seven different treatments: (1) PBS only; (2-4) an anti-HBV antibody (a fully murinized HBC34v35 antibody, HBC34-v35-mu-IgG2a), at one of three doses, administered intraperitoneally twice per week during weeks two and three; or (5-7) an HBV-specific siRNA (HBV02, having an antisense strand of SEQ ID NO:8; see description in Example 1) administered subcutaneously once at the beginning of the study, and the fully murinized HBC34v35, at one of three antibody doses, administered intraperitoneally twice per week during weeks two and three (see Table 7). Mice were sacrificed at week 6.
Serum samples were collected periodically throughout the study, and viral load, HBsAg, and free HBC34 antibody were measured.

HBsAg = HBsAg (Hepatitis B virus genotype D subtype ayw, UniProt P03138); test: Activity measured diagnostically with an immunoassay; assay type: binding, HBV
antigenic loop of HBsAg = test: Binding to HBsAg; set-up: species or system HBV
HBV = HBV neutralization; assay type: cell-based; conditions: human antibodies against HBsAg
Description: To study and quantitate virus infectivity (or “neutralization”) in the laboratory the person skilled in the art knows various standard “neutralization assays.” For a neutralization assay, animal viruses are typically propagated in cells and/or cell lines. In the context of the present disclosure, for a neutralization assay, cultured cells may be incubated with a fixed amount of HBV in the presence (or absence) of the antibody to be tested. As a readout, the levels of hepatitis B surface antigen (HBsAg) or hepatitis B e antigen (HBeAg) secreted into the cell culture supernatant may be used and/or HBcAg staining may be assessed. In one embodiment of a HBV neutralization assay, cultured cells, for example HepaRG cells, in particular differentiated HepaRG cells, are incubated with a fixed amount of HBV in the presence or absence of the antibody to be tested, for example for 16 hours at 37° C. The incubation may be performed in a medium (e.g., supplemented with 4% PEG 8000). After incubation, cells may be washed and further cultivated. To measure virus infectivity, the levels of hepatitis B surface antigen (HBsAg) and hepatitis B e antigen (HBeAg) secreted into the culture supernatant, e.g., from day 7 to day 11 post-infection, may be determined by enzyme-linked immunosorbent assay (ELISA). Additionally, HBcAg staining may be assessed in an immunofluorescence assay.

Molecule	Reduction of serum HBV DNA (viral load) relative to the saline control ([1]; FIGS. 2A, 2B)	Reduction of serum HBsAg relative to the saline control ([1]; FIGS. 3A, 3B)	Serum HBV DNA concentration, antibody monotherapy (HBV genotype C; FIG. 9)	Serum HBsAg concentration, antibody monotherapy (HBV genotype C; FIG. 10)	Activity as measured diagnostically with an immunoassay (HBsAg)	Affinity of binding to the antigenic loop of HBsAg (antigenic loop of HBsAg)	HBV genotypes and mutants recognized (antigenic loop of HBsAg)	Stoichiometry of binding to spherical SVPs (antigenic loop of HBsAg; spherical subviral particles)	Neutralizing activity (HBV)
HBC34: human monoclonal antibody against HBsAg antigenic loop; VH SEQ ID NO:53, VL SEQ ID NO:55	no effect	< 1 log10	lower	lower	5000 IU/mg	high affinity (in the pM range)	all 10 HBV genotypes and 18 mutants	low stoichiometry	high neutralizing activity
HBC24: human antibody against HBsAg, VH SEQ ID NO:75, VL SEQ ID NO:76; murinized heavy and light chains SEQ ID NOs:103 and 104 (antibody, V domains shown, Synthetic sequence HBC24 VH; Synthetic sequence HBC24 VL) VH: EVQLLESGGGLVQPGGSLRLSCAASGSTFTKYAMSWVRQAPGKGLEWVASISGSVPGFGIDTYYADSVKGRFTISRDTSKNTLYLQMNSLRAEDTALYYCAKDVGVIGSYYYYAMDVWGQGTAVTVSS VL: EIVLTQSPGTLSLSPGERATLSCRASQGLSSSYLAWYQQKPGQAPRLLIYSASTRATGIPDRFSGSGSGTDFTLTISRLEPEDFAVYYCQQYAYSPRWTFGQGTKVEIK									high neutralizing activity
